Results from patent US20090069408A1, “TRICYCLIC COMPOUNDS USEFUL IN TREATING IRON DISORDERS” (XENON PHARMACEUTICALS INC., priority 2007, published 2009).
Structures can show the parent of a compound that is named as a salt.

SMILES	melting point
N=C(N)SCc1cccc2c1-c1c(CSC(=N)N)cccc1C2=O (as salt: hydrobromid) [Example 1.15, (9-oxo-9H-fluorene-4,5-diyl)bis(methylene) dicarbamimidothioate dihydrobromide]	218 to 220 °C
N=C(N)SCc1cccc2c(=O)c3cccc(CSC(=N)N)c3oc12 (as salt: hydrobromid) [Example 1.16, (9-oxo-9H-xanthene-4,5-diyl)bis(methylene) dicarbamimidothioate dihydrobromide]	> 230 °C
Cc1c2cccc(CSC(=N)N)c2nc2c(CSC(=N)N)cccc12 (as salt: hydrobromid) [Example 1.17, (9-methylacridine-4,5-diyl)bis(methylene) dicarbamimidothioate dihydrobromide]	> 270 °C (dec.)
N=C(N)SCc1cccc2c1-c1c(cccc1CSC(=N)N)CSC2 (as salt: hydrobromid) [Example 1.19, (5,7-dihydrodibenzo[c,e]thiepine-1,11-diyl)bis(methylene) dicarbamimidothioate dihydrobromide]	155 to 158 °C
N=C(N)SCc1cc(F)cc2c1-c1c(CSC(=N)N)cc(F)cc1-2 (as salt: hydrobromid) [Example 5, (3,6-difluorobiphenylene-1,8-diyl)bis(methylene) dicarbamimidothioate dihydrobromide]	> 250 °C
